Measurements: ChEMBL document CHEMBL4390652, “Design, biological evaluation and X-ray crystallography of nanomolar multifunctional ligands targeting simultaneously acetylcholinesterase and glycogen synthase kinase-3” (Eur J Med Chem, 2019)

How the values were obtained:
[1] = system: Tyrosine-protein kinase ABL1 (Homo sapiens), P00519 [F317L]; assay: Binding affinity to human non-phosphorylated ABL1 F317L mutant (S229 to K512 residues) expressed in mammalian expression system assessed as residual binding level at 10 uM by Kinomescan method relative to control
[2] = system: Tyrosine-protein kinase ABL1 (Homo sapiens), P00519 [Y253F]; assay: Binding affinity to human phosphorylated ABL1 Y253F mutant (S229 to K512 residues) expressed in mammalian expression system assessed as residual binding level at 10 uM by Kinomescan method relative to control
[3] = target: RAC-beta serine/threonine-protein kinase (Homo sapiens) (UniProt P31751); assay: Binding affinity to wild-type human partial length AKT2 expressed in bacterial expression system assessed as residual binding level at 10 uM by Kinomescan method relative to control
[4] = target: Bone morphogenetic protein receptor type-1A (Homo sapiens) (UniProt P36894); assay: Binding affinity to wild-type human partial length BMPR1A (Q214 to I532 residues) expressed in bacterial expression system assessed as residual binding level at 10 uM by Kinomescan method relative to control
[5] = target: Calcium/calmodulin-dependent protein kinase type 1 (Homo sapiens) (UniProt Q14012); assay: Binding affinity to wild-type human full length CAMK1 (M1 to L370 residues) expressed in bacterial expression system assessed as residual binding level at 10 uM by Kinomescan method relative to control
Calcium/calmodulin-dependent protein kinase type 1 (Homo sapiens), sequence (Q14012 whole entry, looked up, the tested form may be a part): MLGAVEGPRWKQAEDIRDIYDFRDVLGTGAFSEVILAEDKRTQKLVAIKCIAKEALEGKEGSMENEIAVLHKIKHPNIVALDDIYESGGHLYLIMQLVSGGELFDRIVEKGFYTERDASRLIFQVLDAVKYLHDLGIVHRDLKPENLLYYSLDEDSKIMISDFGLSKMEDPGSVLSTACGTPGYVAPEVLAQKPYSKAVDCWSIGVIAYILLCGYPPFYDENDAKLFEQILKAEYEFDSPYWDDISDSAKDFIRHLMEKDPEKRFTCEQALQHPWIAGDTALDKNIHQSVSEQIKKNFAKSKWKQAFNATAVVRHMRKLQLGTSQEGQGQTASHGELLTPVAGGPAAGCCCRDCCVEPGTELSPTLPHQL

[6] = target: Calcium/calmodulin-dependent protein kinase kinase 2 (Homo sapiens) (UniProt Q96RR4); assay: Binding affinity to wild-type human partial length CAMKK2 (D65 to V471 residues) expressed in bacterial expression system assessed as residual binding level at 10 uM by Kinomescan method relative to control
[7] = system: Epidermal growth factor receptor (Homo sapiens), P00533 [L858R]; assay: Binding affinity to human partial length EGFR L858R mutant (R669 to V1011 residues) expressed in bacterial expression system assessed as residual binding level at 10 uM by Kinomescan method relative to control
[8] = target: Ephrin type-B receptor 6 (Homo sapiens) (UniProt O15197); assay: Binding affinity to wild-type human partial length EPHB6 (Q634 to P948 residues) expressed in mammalian expression system assessed as residual binding level at 10 uM by Kinomescan method relative to control
[9] = target: Tyrosine-protein kinase HCK (Homo sapiens) (UniProt P08631); assay: Binding affinity to wild-type human full length HCK (M22 to P526 residues) expressed in bacterial expression system assessed as residual binding level at 10 uM by Kinomescan method relative to control
Tyrosine-protein kinase HCK (Homo sapiens), sequence (P08631 2-526 limits assumed): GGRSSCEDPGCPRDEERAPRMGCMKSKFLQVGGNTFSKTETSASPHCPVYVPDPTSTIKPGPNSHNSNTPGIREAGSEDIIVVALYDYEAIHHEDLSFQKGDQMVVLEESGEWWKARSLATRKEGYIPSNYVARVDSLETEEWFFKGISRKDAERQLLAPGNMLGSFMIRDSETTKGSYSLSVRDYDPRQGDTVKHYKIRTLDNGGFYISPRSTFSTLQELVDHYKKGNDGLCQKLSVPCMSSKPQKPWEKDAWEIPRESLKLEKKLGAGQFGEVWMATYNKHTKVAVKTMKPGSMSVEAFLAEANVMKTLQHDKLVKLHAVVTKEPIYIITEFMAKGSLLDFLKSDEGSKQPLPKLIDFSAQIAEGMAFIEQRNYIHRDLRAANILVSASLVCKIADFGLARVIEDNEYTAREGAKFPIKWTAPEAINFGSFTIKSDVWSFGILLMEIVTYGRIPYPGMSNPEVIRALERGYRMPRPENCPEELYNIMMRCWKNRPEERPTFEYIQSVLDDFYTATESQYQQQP

[10] = target: Homeodomain-interacting protein kinase 2 (Homo sapiens) (UniProt Q9H2X6); assay: Binding affinity to wild-type human partial length HIPK2 (M153 to S564 residues) expressed in mammalian expression system assessed as residual binding level at 10 uM by Kinomescan method relative to control
[11] = target: LIM domain kinase 2 (Homo sapiens) (UniProt P53671); assay: Binding affinity to wild-type human full length LIMK2 (M1 to P638 residues) expressed in bacterial expression system assessed as residual binding level at 10 uM by Kinomescan method relative to control
[12] = target: Mitogen-activated protein kinase kinase kinase 15 (Homo sapiens) (UniProt Q6ZN16); assay: Binding affinity to wild-type human partial length MAP3K15 (T625 to L932 residues) expressed in mammalian expression system assessed as residual binding level at 10 uM by Kinomescan method relative to control
[13] = target: MAP/microtubule affinity-regulating kinase 4 (Homo sapiens) (UniProt Q96L34); assay: Binding affinity to wild-type human partial length MARK4 (K29 to G340 residues) expressed in bacterial expression system assessed as residual binding level at 10 uM by Kinomescan method relative to control
[14] = target: Tyrosine-protein kinase Mer (Homo sapiens) (UniProt Q12866); assay: Binding affinity to wild-type human partial length MERTK (R557 to L884 residues) expressed in bacterial expression system assessed as residual binding level at 10 uM by Kinomescan method relative to control
Tyrosine-protein kinase Mer (Homo sapiens), sequence (Q12866 whole entry, the tested form may be a part): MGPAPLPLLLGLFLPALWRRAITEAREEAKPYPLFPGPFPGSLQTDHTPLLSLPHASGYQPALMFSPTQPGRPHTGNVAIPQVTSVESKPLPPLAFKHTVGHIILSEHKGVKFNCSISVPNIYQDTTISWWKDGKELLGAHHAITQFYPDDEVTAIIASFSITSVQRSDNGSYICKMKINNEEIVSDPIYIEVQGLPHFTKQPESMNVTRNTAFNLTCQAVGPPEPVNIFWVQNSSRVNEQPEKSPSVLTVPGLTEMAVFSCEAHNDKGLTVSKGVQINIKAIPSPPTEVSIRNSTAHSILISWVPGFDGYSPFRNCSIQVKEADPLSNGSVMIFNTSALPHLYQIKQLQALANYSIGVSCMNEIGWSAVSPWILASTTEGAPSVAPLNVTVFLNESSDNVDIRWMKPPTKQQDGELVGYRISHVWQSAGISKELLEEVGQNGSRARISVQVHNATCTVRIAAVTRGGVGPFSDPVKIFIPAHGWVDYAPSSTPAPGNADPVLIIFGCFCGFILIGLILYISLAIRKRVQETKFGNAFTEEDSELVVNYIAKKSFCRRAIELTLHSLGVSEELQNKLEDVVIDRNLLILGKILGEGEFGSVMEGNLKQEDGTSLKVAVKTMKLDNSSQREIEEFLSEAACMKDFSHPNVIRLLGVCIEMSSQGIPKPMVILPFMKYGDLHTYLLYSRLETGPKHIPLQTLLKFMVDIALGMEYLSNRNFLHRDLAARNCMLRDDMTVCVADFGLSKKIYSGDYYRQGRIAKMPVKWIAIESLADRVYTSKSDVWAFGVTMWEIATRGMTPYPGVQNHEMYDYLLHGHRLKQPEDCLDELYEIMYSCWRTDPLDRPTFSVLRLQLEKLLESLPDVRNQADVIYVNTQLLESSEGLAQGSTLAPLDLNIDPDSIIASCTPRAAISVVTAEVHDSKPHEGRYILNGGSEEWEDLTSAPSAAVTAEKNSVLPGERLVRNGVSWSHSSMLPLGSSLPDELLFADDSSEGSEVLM

[15] = target: Macrophage-stimulating protein receptor (Homo sapiens) (UniProt Q04912); assay: Binding affinity to wild-type human partial length MST1R (I1057 to L1363 residues) expressed in bacterial expression system assessed as residual binding level at 10 uM by Kinomescan method relative to control
[16] = target: Mitogen-activated protein kinase 11 (Homo sapiens) (UniProt Q15759); assay: Binding affinity to wild-type human full length p38-beta (M1 to Q364 residues) expressed in bacterial expression system assessed as residual binding level at 10 uM by Kinomescan method relative to control
Mitogen-activated protein kinase 11 (Homo sapiens), sequence (Q15759 whole entry, the tested form may be a part): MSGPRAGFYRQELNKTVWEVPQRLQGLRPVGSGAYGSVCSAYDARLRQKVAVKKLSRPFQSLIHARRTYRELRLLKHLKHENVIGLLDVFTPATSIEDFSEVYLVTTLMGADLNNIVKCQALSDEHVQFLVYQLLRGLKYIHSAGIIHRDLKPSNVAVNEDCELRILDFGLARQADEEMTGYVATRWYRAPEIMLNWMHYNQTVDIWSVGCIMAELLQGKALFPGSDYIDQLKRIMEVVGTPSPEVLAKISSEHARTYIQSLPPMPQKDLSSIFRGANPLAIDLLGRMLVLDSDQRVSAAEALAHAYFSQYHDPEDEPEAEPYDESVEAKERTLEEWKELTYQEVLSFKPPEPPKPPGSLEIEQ

[17] = target: Platelet-derived growth factor receptor beta (Homo sapiens) (UniProt P09619); assay: Binding affinity to wild-type human partial length PDGFRB (V582 to Y1009 residues) expressed in bacterial expression system assessed as residual binding level at 10 uM by Kinomescan method relative to control
[18] = target: Phosphatidylinositol 4-kinase beta (Homo sapiens) (UniProt Q9UBF8); assay: Binding affinity to wild-type human full length PIK4CB (M1 to M828 residues) expressed in mammalian expression system assessed as residual binding level at 10 uM by Kinomescan method relative to control
[19] = target: cGMP-dependent protein kinase 1 (Homo sapiens) (UniProt Q13976); assay: Binding affinity to wild-type human partial length PRKG1 (L339 to F686 residues) expressed in bacterial expression system assessed as residual binding level at 10 uM by Kinomescan method relative to control
cGMP-dependent protein kinase 1 (Homo sapiens), sequence (Q13976 whole entry, the tested form may be a part): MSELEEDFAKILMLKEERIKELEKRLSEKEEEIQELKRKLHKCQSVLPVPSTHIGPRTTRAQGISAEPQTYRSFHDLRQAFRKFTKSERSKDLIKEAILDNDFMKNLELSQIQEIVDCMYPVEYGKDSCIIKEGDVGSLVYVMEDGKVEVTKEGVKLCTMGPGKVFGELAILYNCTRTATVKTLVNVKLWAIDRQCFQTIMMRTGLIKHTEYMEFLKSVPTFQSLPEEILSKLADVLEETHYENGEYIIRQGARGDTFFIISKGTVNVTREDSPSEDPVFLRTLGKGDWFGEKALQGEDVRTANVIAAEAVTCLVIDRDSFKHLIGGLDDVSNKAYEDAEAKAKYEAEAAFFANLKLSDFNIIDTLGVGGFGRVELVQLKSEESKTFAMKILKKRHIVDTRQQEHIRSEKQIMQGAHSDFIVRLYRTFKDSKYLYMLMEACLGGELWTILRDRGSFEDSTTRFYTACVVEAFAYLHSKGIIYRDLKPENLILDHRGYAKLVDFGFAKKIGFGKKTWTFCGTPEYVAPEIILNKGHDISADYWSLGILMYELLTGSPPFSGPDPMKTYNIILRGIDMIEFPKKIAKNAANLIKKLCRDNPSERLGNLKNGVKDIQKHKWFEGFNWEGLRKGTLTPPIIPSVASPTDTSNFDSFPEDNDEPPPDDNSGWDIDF

[20] = target: Ribosomal protein S6 kinase alpha-1 (Homo sapiens) (UniProt Q15418); assay: Binding affinity to wild-type human partial length C-terminal RSK1 kinase domain 2 (P360 to L681 residues) expressed in bacterial expression system assessed as residual binding level at 10 uM by Kinomescan method relative to control
Ribosomal protein S6 kinase alpha-1 (Homo sapiens), sequence (Q15418 whole entry, the tested form may be a part): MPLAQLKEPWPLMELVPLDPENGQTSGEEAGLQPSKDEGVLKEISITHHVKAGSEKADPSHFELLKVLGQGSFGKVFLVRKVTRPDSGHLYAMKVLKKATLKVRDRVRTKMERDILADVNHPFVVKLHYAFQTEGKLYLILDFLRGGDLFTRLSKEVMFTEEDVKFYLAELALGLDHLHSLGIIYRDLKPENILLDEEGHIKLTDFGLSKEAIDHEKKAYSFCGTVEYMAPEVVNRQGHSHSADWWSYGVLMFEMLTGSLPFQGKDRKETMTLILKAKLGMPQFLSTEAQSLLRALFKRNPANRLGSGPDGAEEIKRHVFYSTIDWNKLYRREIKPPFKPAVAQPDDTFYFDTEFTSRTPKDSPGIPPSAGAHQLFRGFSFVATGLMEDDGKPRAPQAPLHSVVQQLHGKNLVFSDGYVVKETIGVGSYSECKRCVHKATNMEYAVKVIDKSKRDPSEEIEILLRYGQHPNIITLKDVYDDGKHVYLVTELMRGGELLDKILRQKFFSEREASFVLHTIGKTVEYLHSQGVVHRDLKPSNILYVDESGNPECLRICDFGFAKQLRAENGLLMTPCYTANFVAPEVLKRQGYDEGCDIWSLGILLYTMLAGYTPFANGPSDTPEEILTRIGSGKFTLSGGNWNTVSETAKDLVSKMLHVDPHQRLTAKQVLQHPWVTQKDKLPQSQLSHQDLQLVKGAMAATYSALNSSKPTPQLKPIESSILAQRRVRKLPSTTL

[21] = target: Proto-oncogene tyrosine-protein kinase Src (Homo sapiens) (UniProt P12931); assay: Binding affinity to wild-type human partial length SRC (L240 to L536 residues) expressed in bacterial expression system assessed as residual binding level at 10 uM by Kinomescan method relative to control
Proto-oncogene tyrosine-protein kinase Src (Homo sapiens), sequence (P12931 2-536 limits assumed): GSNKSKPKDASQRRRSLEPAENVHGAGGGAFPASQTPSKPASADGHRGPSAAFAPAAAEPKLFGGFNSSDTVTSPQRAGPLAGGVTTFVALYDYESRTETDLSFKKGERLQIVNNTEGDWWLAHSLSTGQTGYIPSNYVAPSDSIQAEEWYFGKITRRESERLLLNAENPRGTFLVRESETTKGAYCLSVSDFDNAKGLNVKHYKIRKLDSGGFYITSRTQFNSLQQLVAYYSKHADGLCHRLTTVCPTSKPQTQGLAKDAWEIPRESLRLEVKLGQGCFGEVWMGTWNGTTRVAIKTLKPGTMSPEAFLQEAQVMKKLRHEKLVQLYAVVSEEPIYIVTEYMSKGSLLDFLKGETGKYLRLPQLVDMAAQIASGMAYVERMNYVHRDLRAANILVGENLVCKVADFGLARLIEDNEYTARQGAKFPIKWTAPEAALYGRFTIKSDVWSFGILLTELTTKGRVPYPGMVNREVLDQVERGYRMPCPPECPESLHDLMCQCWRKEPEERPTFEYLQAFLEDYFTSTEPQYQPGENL

[22] = target: SRSF protein kinase 2 (Homo sapiens) (UniProt P78362); assay: Binding affinity to wild-type human full length SRPK2 (M1 to S686 residues) expressed in bacterial expression system assessed as residual binding level at 10 uM by Kinomescan method relative to control
[23] = target: Serine/threonine-protein kinase TNNI3K (Homo sapiens) (UniProt Q59H18); assay: Binding affinity to wild-type human full length TNNI3K (M1 to S835 residues) expressed in bacterial expression system assessed as residual binding level at 10 uM by Kinomescan method relative to control
Serine/threonine-protein kinase TNNI3K (Homo sapiens), sequence (Q59H18 whole entry, the tested form may be a part): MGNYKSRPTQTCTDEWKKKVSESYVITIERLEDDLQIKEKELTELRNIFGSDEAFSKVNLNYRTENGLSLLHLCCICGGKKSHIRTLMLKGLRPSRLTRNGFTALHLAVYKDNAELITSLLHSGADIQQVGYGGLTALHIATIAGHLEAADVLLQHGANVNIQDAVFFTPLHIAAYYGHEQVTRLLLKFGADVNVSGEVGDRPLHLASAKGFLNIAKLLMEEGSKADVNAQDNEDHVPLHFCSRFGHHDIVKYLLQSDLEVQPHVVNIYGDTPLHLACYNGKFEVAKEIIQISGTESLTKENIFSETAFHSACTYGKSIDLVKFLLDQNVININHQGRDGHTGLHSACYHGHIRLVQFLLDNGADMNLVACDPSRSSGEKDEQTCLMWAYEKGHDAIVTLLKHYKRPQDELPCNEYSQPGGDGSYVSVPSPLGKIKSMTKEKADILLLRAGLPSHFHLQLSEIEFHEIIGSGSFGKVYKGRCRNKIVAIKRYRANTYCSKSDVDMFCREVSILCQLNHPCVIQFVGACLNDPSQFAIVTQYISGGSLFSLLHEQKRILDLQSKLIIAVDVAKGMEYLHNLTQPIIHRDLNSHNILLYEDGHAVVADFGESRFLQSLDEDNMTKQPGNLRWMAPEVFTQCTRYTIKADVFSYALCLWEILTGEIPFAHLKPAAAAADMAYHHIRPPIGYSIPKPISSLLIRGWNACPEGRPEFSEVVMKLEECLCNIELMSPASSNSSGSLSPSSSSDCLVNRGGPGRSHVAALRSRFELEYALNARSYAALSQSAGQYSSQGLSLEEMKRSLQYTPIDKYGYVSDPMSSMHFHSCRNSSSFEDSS

[24] = target: Transient receptor potential cation channel subfamily M member 6 (Homo sapiens) (UniProt Q9BX84); assay: Binding affinity to wild-type human partial length TRPM6 (Q1723 to I1998 residues) expressed in mammalian expression system assessed as residual binding level at 10 uM by Kinomescan method relative to control

With `O=C(Nc1cc(-c2cn(CCNc3c4c(nc5ccccc35)CCCC4)nn2)ccn1)Nc1cccc2c1C1CCCCN1C2=O` (racemic) as the compound, how does the Activity [1] read?
Its Activity is 78%.

And the Activity [2]?
The Activity was 0.95%.

What about the Activity [3] of the same compound?
Its Activity is 80%.

And the Activity [4]?
The Activity was 92%.

And the Activity [5]?
Its Activity is 52%.

What about the Activity [6] of the same compound?
The Activity was 18%.

What about the Activity [7] of the same compound?
Its Activity is 80%.

What about the Activity [8] of the same compound?
Its Activity is 13%.

And the Activity [9]?
The Activity was 100%.

What about the Activity [10] of the same compound?
Its Activity is 49%.

What about the Activity [11] of the same compound?
The Activity was 60%.

What about the Activity [12] of the same compound?
The Activity was 100%.

What about the Activity [13] of the same compound?
Its Activity is 35%.

What about the Activity [14] of the same compound?
The Activity was 12%.

And the Activity [15]?
Its Activity is 89%.

What about the Activity [16] of the same compound?
Its Activity is 74%.

And the Activity [17]?
The Activity was 2.3%.

What about the Activity [18] of the same compound?
The Activity was 28%.

And the Activity [19]?
The Activity was 92%.

And the Activity [20]?
Its Activity is 53%.

And the Activity [21]?
Its Activity is 24%.

What about the Activity [22] of the same compound?
Its Activity is 35%.

And the Activity [23]?
The Activity was 100%.

What about the Activity [24] of the same compound?
Its Activity is 100%.
